Test results from patent publication US20260285853A1, “COMPOUNDS AND METHODS FOR MODULATING SPLICING” (REMIX THERAPEUTICS INC., priority 2023, published 2026).
Read-outs that look alike come from different tables or passages of the source.

Assays:
Format in all cases: cell-based
[1] = tested on: MYB mRNA; assay: Splicing RT-qPCR assay (THP), Table 2A
[2] = tested on: HTT mRNA; assay: Splicing RT-qPCR assay (THP), Table 2A
[3] = tested on: SH-SY5Y (human neuroblastoma) cells; assay: Cell viability, Cell Titer Glo 2.0 assay; settings: read-out: Viability SHSY5Y.3 GI50
Experimental: Compounds described herein were screened for toxicity in K562 (human chronic myelogenous leukemia) and SH-SY5Y (human neuroblastoma) cells using a Cell Titer Glo 2.0 assay.
• Promega CellTiter-Glo® 2.0 Cell Viability Assay (cat #G9241) • Corning 384-well TC-treated microplates (cat #3570)
Cells were plated at 500 cells/well (K562 cells) in 45 μL of IMDM supplemented with 10% FBS in a 384-well opaque plate. Wells containing only medium were used as a blank control. Test compounds (e.g., compounds of Formula (I) or (II) were first serially diluted in DMSO then diluted 1:100 with IMDM+10% FBS. The final concentration of DMSO was 0.1% in each well. The cells were incubated for 72 hours at 37° C. and 5% CO2 before assaying with Cell Titer Glo 2.0 reagent.

[4] = tested on: MYB mRNA; assay: Gene panel canonical junction qPCR assay, decrease in CJ mRNA, Table 3
Experimental: (§1) Compounds described herein were used to modulate RNA transcript abundance in cells. The expression of a target mRNA was measured by detecting the formation of an exon-exon junction in the canonical transcript (CJ). A compound mediated exon-inclusion event was detected by observing an increase in formation of a new junction with an alternative exon (AJ). Real-time qPCR assays were used to detect these splicing switches and interrogate the potency of various compounds towards different target genes. A high-throughput real time quantitative PCR (RT-qPCR) assay was developed to measure these two isoforms of the mRNA (CJ and AJ) for exemplary genes, such as HTT, SMN2, and MYB, together with a control housekeeping gene, GAPDH or GUSB or PPIA, used for normalization. Briefly, the A673 or K562 cell line was treated with various compounds described herein (e.g., compounds of Formula (I)). After treatment, the levels of the HTT, MYB, or SMN2 mRNA targets were determined from each sample of cell lysate by cDNA synthesis followed by qPCR.
(§2) The A673 cell line was cultured in DMEM with 10% FBS. Cells were diluted with full growth media and plated in a 96-well plate (15,000 cells in 100 ul media per well). The plate was incubated at 37° C. with 5% CO2 for 24 hours to allow cells to adhere. An 11-point 3-fold serial dilution of the compounds was made in DMSO then diluted in media in an intermediate plate. Compounds were transferred from the intermediate plate to the cell plate with the top dose at a final concentration of 10 uM in the well. Final DMSO concentration was kept at or below 0.25%. The cell plate was returned to the incubator at 37° C. with 5% CO2 for an additional 24 hours.
(§3) The K562 cell line was cultured in IMDM with 10% FBS. For K562, cells were diluted with full growth media and plated in either a 96-well plate (50,000 cells in 50 uL media per well) or a 384-well plate (8,000-40,000 cells in 45 uL media per well). An 11-point 3-fold serial dilution of the compounds were made in DMSO then diluted in media in an intermediate plate. Compound was transferred from the intermediate plate to the cell plate with the top dose at a final concentration of 10 uM in the well. Final DMSO concentration was kept at or below 0.25%. Final volume was 100 uL for 96-well plate and 50 uL for 384-well plate. The cell plate was then placed in an incubator at 37° C. with 5% CO2 for 24 hours.
(§4) The data analysis was performed by first determining the ΔCt vs the housekeeper gene. This ΔCt was then normalized against the DMSO control (ΔΔCt) and converted to RQ (relative quantification) using the 2^(−ΔΔCt) equation. The RQ were then converted to a percentage response by arbitrarily setting an assay window of 3.5 and 4.0 ΔCt for HTT-CJ and MYB-CJ respectively and an assay window of 9 and 3 ΔCt for HTT-AJ and MYB-AJ in 96 well format (50,000 K562 cells/well and 15,000 A673 cells per well) and an assay window of 3 and 4 ΔCt for HTT-CJ and MYB-CJ respectively and an assay window of 5 and 3 ΔCt for HTT-AJ and MYB-AJ respectively in 384 well format (8,000 K562 cells/well example). […] The percentage response was then fitted to the 4 parametric logistic equation to evaluate the concentration dependence of compound treatment. The increase in AJ mRNA is reported as AC50 (compound concentration having 50% response in AJ increase) while the decrease in CJ mRNA levels is reported as IC50 (compound concentration having 50% response in CJ decrease).
(§5) Additional studies were carried out for a larger panel of genes using the protocol provided above. The junction between flanking upstream and downstream exons was used to design canonical junction qPCR assays. At least one of the forward primer, reverse primer or the CY5-labeled 5′ nuclease probe (with 3′ quencher such as ZEN/Iowa Black FQ) was designed to overlap with the exon junction to capture the CJ mRNA transcript. […]

[5] = tested on: HTT mRNA; assay: as above
Experimental: as §1, §2, §3, §4, §5

[6] = Table 2A (THP), AJ mRNA increase, read-out: MYB AJ (increase in alternative junction mRNA, AC50)
[7] = Table 2A (THP), CJ mRNA decrease, read-out: MYB CJ (decrease in canonical junction mRNA, IC50)
[8] = Table 2A (THP), AJ mRNA increase, read-out: HTT AJ (increase in alternative junction mRNA, AC50)
[9] = Table 2A (THP), CJ mRNA decrease, read-out: HTT CJ (decrease in canonical junction mRNA, IC50)
[10] = decrease in canonical junction (CJ) mRNA, gene panel qPCR, Table 3
[11] = Table 2A, THP, MYB alternative junction (AJ) mRNA, read-out: MYB AJ (AC50, increase in alternative junction mRNA)
[12] = Table 2A, THP, MYB canonical junction (CJ) mRNA, read-out: MYB CJ (IC50, decrease in canonical junction mRNA)
[13] = Table 2A, THP, HTT alternative junction (AJ) mRNA, read-out: HTT AJ (AC50, increase in alternative junction mRNA)
[14] = Table 2A, THP, HTT canonical junction (CJ) mRNA, read-out: HTT CJ (IC50, decrease in canonical junction mRNA)
[15] = decrease in CJ mRNA levels, canonical junction qPCR, gene panel

Structure (SMILES) | IC50 [1, 7] | IC50 [2, 9] | GI50 [3] | IC50 [4, 10] | IC50 [5, 10] | IC50 [1, 12] | IC50 [2, 14] | IC50 [4, 15] | IC50 [5, 15] | AC50 [1, 6] | AC50 [2, 8] | AC50 [1, 11] | AC50 [2, 13]
CCNC1CCN(c2ccc(C(=O)Nc3cc(Oc4cccnc4)c4nc(C)cn4c3)c3nn(C)cc23)CC1 [Compound 353, 4-[4-(ethylamino)-1-piperidyl]-2-methyl-N-[2-methyl-8-(3-pyridyloxy)-imidazo[1,2-a]-pyridin-6-yl]-indazole-7-carboxamide] | 100 to 1000 nM | 1000 to 10000 nM | > 10000 nM | 100 to 1000 nM | 1000 to 10000 nM |  |  |  |  | 100 to 1000 nM | 1000 to 10000 nM |  | 
Cc1nc2c(F)cc(NC(=O)c3ccc(N4CCC(NC5CC5)CC4)c4cn(C)nc34)cn2n1 [Compound 755, 4-[4-(cyclopropylamino)-1-piperidyl]-N-(8-fluoro-2-methyl-[1,2,4]triazolo[1,5-a]pyridin-6-yl)-2-methyl-indazole-7-carboxamide] |  |  | 100 to 1000 nM |  |  | 100 to 1000 nM | 1000 to 10000 nM | 100 to 1000 nM | 1000 to 10000 nM |  |  | < 100 nM | 1000 to 10000 nM
COc1cc2nn(C)cc2cc1NC(=O)c1ccc(N2CC3(CCNCC3)C2)c2cn(C)nc12 [Compound 507] | 1000 to 10000 nM | 1000 to 10000 nM | 1000 to 10000 nM | 1000 to 10000 nM | 1000 to 10000 nM |  |  |  |  | 100 to 1000 nM | 1000 to 10000 nM |  | 

Now from value to molecule, other results behind:

IC50 [1, 7] | IC50 [2, 9] | GI50 [3] | IC50 [4, 10] | IC50 [5, 10] | IC50 [1, 12] | IC50 [2, 14] | IC50 [4, 15] | IC50 [5, 15] | Structure (SMILES) | AC50 [1, 6] | AC50 [2, 8] | AC50 [1, 11] | AC50 [2, 13]
100 to 1000 nM | 1000 to 10000 nM | 100 to 1000 nM | 100 to 1000 nM | 1000 to 10000 nM |  |  |  |  | CCOc1cc2nc(C)cn2cc1NC(=O)c1c(F)cc(N2CCC(NC3CC3)CC2)c2cn(C)nc12 [Compound 406, 4-[4-(cyclopropylamino)-1-piperidyl]-N-(7-ethoxy-2-methyl-imidazo[1,2-a]pyridin-6-yl)-6-fluoro-2-methyl-indazole-7-carboxamide] | 100 to 1000 nM | 1000 to 10000 nM |  | 
100 to 1000 nM | 100 to 1000 nM | 100 to 1000 nM | 100 to 1000 nM | 100 to 1000 nM |  |  |  |  | COc1cc2nn(C)cc2cc1NC(=O)c1ccc(N2CCC(NC3CC3)CC2)c2cc(CO)nn12 [Compound 443, 4-(4-(cyclopropylamino)piperidin-1-yl)-2-(hydroxymethyl)-N-(6-methoxy-2-methyl-2H-indazol-5-yl)pyrazolo[1,5-a]pyridine-7-carboxamide 2,2,2-trifluoroacetate] | < 100 nM | 100 to 1000 nM |  | 
 |  | < 100 nM |  |  | < 100 nM | 100 to 1000 nM | < 100 nM | 100 to 1000 nM | COc1nc2c(C(=O)Nc3ccc4nn(C)cc4c3F)ccc(N3C[C@H](C)N[C@@H](C)C3)c2s1 [Compound 727, 7-((3S,5S)-3,5-dimethylpiperazin-1-yl)-N-(4-fluoro-2-methyl-2H-indazol-5-yl)-2-methoxybenzo[d]thiazole-4-carboxamide 2,2,2-trifluoroacetate] |  |  | < 100 nM | 100 to 1000 nM
